The values that follow come from patent publication US9771369B2, “Compounds and methods for kinase modulation, and indications therefor” (Plexxikon Inc., priority 2014, dated 2017).

One assay deals with c-kit mutant D816V (Homo sapiens (Human), UniProt P10721, D816V/DEL694-753). Nature of the assay: c-Kit mutant D816V biochemical assay (AlphaScreen kinase activity). The method in brief: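 Recombinant His-tagged c-Kit D816V kinase domain (residues 551-934, insert 694-753 deleted, E. coli-expressed) phosphorylating 30 nM biotin-(E4Y)10 with 10 μM ATP, HEPES pH 7.2, Mg/Mn, 5% DMSO; 30 min, room temperature. Phosphorylation detected by AlphaScreen (streptavidin donor/PY30 acceptor beads); IC50 from 8-point 1:3 series.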
c-kit mutant D816V, sequence (P10721 other isoform, or with tags, fused parts or gaps D816V/del 694-753): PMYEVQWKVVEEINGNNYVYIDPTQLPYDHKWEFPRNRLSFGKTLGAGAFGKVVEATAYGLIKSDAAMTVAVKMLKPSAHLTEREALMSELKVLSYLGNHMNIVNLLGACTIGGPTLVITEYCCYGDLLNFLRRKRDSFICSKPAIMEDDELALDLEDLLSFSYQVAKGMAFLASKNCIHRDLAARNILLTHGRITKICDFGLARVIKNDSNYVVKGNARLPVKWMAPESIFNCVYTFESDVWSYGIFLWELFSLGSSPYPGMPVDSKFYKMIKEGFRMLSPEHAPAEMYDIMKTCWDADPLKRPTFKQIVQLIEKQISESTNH
A general note: In Alpha technology, singlet oxygen from a donor bead excites a nearby acceptor bead.

The subject of assay [1] is BaF3-FL KIT D816V or BaF3-FL KIT V560G/D816V cell line. As to the kind of experiment: Cell-based assays of c-Kit mutant kinase activity (cell proliferation, ATPlite). The settings on record: at least one of the c-kit cell assays of Example 7. The method in brief:
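BaF3 cells dependent on transfected full-length human KIT D816V or V560G/D816V (pCI-Neo, CMV promoter) were seeded at 1×10^4 cells/well and exposed to 8-point 1:3 dilutions from 10 μM top (0.2% DMSO) for three days at 37° C. ATPlite luminescence gave cell number; IC50 from concentration-response.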
(Cellular ATP, detected with luciferase, serves as a proxy for viable cell number.)

Molecules are shown by their SMILES. A value given as a limit tells only on which side of the number the result lay.

In general, IC50 refers to the concentration at which inhibition is half-maximal. A high value points to lower potency. On to `COc1ccc(-c2[nH]c(C3(C)CCN(c4ncnc5[nH]c(-c6ccnc(OC)c6)cc45)CC3)nc2C)cc1` [P-3041, 4-[4-[5-(4-methoxyphenyl)-4-methyl-1H-imidazol-2-yl]-4-methyl-1-piperidyl]-6-(2-methoxy-4-pyridyl)-7H-pyrrolo[2,3-d]pyrimidine], for which the IC50 on c-kit mutant D816V is 0.0001 to 1 µM; in assay [1], less than 10000 nM.

Turning to `COc1cc(-c2cc3c(N4CCC(c5nc(C)c(-c6ccc(OC)c(OC)c6)[nH]5)CC4)ncnc3[nH]2)ccn1` [P-3042, 4-[4-[5-(3,4-dimethoxyphenyl)-4-methyl-1H-imidazol-2-yl]-1-piperidyl]-6-(2-methoxy-4-pyridyl)-7H-pyrrolo[2,3-d]pyrimidine], the IC50 at c-kit mutant D816V was 0.0001 to 1 µM; in assay [1] it was less than 10000 nM.

In the case of `COc1ccc(-c2[nH]c(C3(C)CCN(c4ncnc5[nH]c(-c6ccc(C#N)cc6)cc45)CC3)nc2C)cc1` [P-3043, 4-[4-[4-[5-(4-methoxyphenyl)-4-methyl-1H-imidazol-2-yl]-4-methyl-1-piperidyl]-7H-pyrrolo[2,3-d]pyrimidin-6-yl]benzonitrile], the IC50 was 0.0001 to 1 µM at c-kit mutant D816V and less than 10000 nM in assay [1].

For `Cc1nc(C2CCN(c3ncnc4[nH]c(-c5ccc(C(N)=O)cc5)cc34)CC2)[nH]c1-c1ccccc1` [P-3044, 4-[4-[4-(4-methyl-5-phenyl-1H-imidazol-2-yl)-1-piperidyl]-7H-pyrrolo[2,3-d]pyrimidin-6-yl]benzamide], the IC50 against c-kit mutant D816V was 0.0001 to 1 µM; in assay [1] it was less than 10000 nM.

In the case of `COc1ncc(-c2cc3c(N4CCC(c5nc(C)c(-c6ccccc6)[nH]5)CC4)ncnc3[nH]2)cn1` [P-3045, 6-(2-methoxypyrimidin-5-yl)-4-[4-(4-methyl-5-phenyl-1H-imidazol-2-yl)-1-piperidyl]-7H-pyrrolo[2,3-d]pyrimidine], the IC50 against c-kit mutant D816V was 0.0001 to 1 µM; in assay [1], less than 10000 nM.

As to `Cc1nc(C2CCN(c3ncnc4[nH]c(-c5cnn(C)c5)cc34)CC2)[nH]c1-c1ccccc1` [P-3046, 4-[4-(4-methyl-5-phenyl-1H-imidazol-2-yl)-1-piperidyl]-6-(1-methylpyrazol-4-yl)-7H-pyrrolo[2,3-d]pyrimidine], the IC50 at c-kit mutant D816V was 0.0001 to 1 µM; in assay [1], less than 10000 nM.

With `Cc1nc(C2CCN(c3ncnc4[nH]c(-c5ccc(C#N)cc5)cc34)CC2)[nH]c1-c1ccccc1` [P-3047, 4-[4-[4-(4-methyl-5-phenyl-1H-imidazol-2-yl)-1-piperidyl]-7H-pyrrolo[2,3-d]pyrimidin-6-yl]benzonitrile], the IC50 on c-kit mutant D816V was 0.0001 to 1 µM; in assay [1], less than 10000 nM.

Take `Cc1nc(C2CCN(c3ncnc4[nH]c(-c5ccc(S(N)(=O)=O)cc5)cc34)CC2)[nH]c1-c1ccccc1` [P-3048, 4-[4-[4-(4-methyl-5-phenyl-1H-imidazol-2-yl)-1-piperidyl]-7H-pyrrolo[2,3-d]pyrimidin-6-yl]benzenesulfonamide]: the IC50 was 0.0001 to 1 µM against c-kit mutant D816V and less than 10000 nM in assay [1].

For `CNC(=O)c1cccc(-c2cc3c(N4CCC(c5nc(C)c(-c6ccccc6)[nH]5)CC4)ncnc3[nH]2)c1` [P-3049, N-methyl-3-[4-[4-(4-methyl-5-phenyl-1H-imidazol-2-yl)-1-piperidyl]-7H-pyrrolo[2,3-d]pyrimidin-6-yl]benzamide], the IC50 against c-kit mutant D816V is 0.0001 to 1 µM; in assay [1], less than 10000 nM.

For the compound `Cc1nc(C2CCN(c3ncnc4[nH]c(-c5cnn(C(F)F)c5)cc34)CC2)[nH]c1-c1ccccc1` [P-3050, 6-[1-(difluoromethyl)pyrazol-4-yl]-4-[4-(4-methyl-5-phenyl-1H-imidazol-2-yl)-1-piperidyl]-7H-pyrrolo[2,3-d]pyrimidine], the IC50 was 0.0001 to 1 µM at c-kit mutant D816V and less than 10000 nM in assay [1].

Consider `Cc1nc(C2CCN(c3ncnc4[nH]c(-c5cccc(S(N)(=O)=O)c5)cc34)CC2)[nH]c1-c1ccccc1` [P-3051, 3-[4-[4-(4-methyl-5-phenyl-1H-imidazol-2-yl)-1-piperidyl]-7H-pyrrolo[2,3-d]pyrimidin-6-yl]benzenesulfonamide], for which the IC50 against c-kit mutant D816V is 0.0001 to 1 µM; in assay [1], less than 10000 nM.
